Results as given in patent US8063088B2 (Hoffmann-La Roche Inc., priority 2008, dated 2011).

Columns and labels:
human LXR alpha = molecular target: T1, human LXR alpha (Homo sapiens, UniProt Q13133); assay: Radioligand binding assay (SPA), LXR alpha LBD; conditions: radioligand displacement, LXRα-LBD on SPA beads; read-out: LXRalpha Binding IC50
T1 construct: human LXR alpha (aa 164 to 447); unspecified tag ('tagged versions'); made in house; host or cells: E. coli BL21 (pLysS)
T1 sequence (Q13133 164-447): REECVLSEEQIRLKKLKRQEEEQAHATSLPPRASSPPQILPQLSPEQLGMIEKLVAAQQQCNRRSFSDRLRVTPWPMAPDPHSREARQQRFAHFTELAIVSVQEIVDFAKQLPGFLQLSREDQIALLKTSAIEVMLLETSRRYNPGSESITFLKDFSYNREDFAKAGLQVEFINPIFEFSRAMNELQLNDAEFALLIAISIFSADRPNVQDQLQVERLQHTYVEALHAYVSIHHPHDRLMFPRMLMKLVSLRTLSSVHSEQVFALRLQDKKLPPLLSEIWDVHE
Description: (§1) The following tests were carried out in order to determine the activity of the compounds of the present invention. Background information on the performed assays can be found in: Nichols J S et al. “Development of a scintillation proximity assay for peroxisome proliferator-activated receptor gamma ligand binding domain”, Anal Biochem. 1998, 257: 112-119.
(§2) Mammalian expression vectors were constructed to express full-length human LXR alpha and LXR beta. Bacterial expression vectors were constructed to produce tagged versions of the ligand binding domains (LBD) of human LXR alpha (aa 164 to 447) and human LXR beta (aa 155 to 460). To accomplish this, the portions of the sequences encoding the LBDs were amplified from the full-length clones by PCR and then subcloned into the plasmid vectors. Final clones were verified by DNA sequence analysis (Willy et al., Genes Dev. 1995, 9:1033-45; Song et al., Proc Natl Acad Sci USA. 1994, 91:10809-13).
(§3) Induction, expression, and purification of LBD proteins were performed in E. coli strain BL21 (pLysS) cells by standard methods (Ref: Current Protocols in Molecular Biology, Wiley Press, edited by Ausubel et al).
(§4) Radioligand Binding Assay
(§5) LXR alpha and LXR beta receptor binding were assayed in buffer consisting of 50 mM HEPES, pH 7.4, 10 mM NaCl, 5 mM MgCl2. For each 96-well reaction, 500 ng of LXRα-LBD or 700 ng of LXR beta-LBD proteins were bound to 80 μg or 40 μg SPA beads respectively, in a final volume of 50 μl by shaking. The resulting slurry was incubated for 1 h at RT and centrifuged for 2 min at 1300×g. The supernatant containing unbound protein was removed, and the semi-dry pellet containing the receptor-coated beads was re-suspended in 50 μl of buffer. Radioligand (eg. 100,000 dpm of (N-(2,2,2-trifluoroethyl)-N-[4-(2,2,2-trifluoro-1-hydroxy-1-trifluoromethylethyl)-phenyl]-benzenesulfonamide)) was added, and the reaction incubated at RT for 1 h in the presence of test compounds, and then scintillation proximity counting was performed. All binding assays were performed in 96-well plates and the amount of bound ligand was measured on a Packard TopCount using OptiPlates (Packard). Dose response curves were measured within a range of concentration from 10^−10 M to 10^−4 M.

human LXR beta = molecular target: T2, human LXR beta (Homo sapiens, UniProt P55055); assay: Radioligand binding assay (SPA), LXR beta LBD; conditions: radioligand displacement, LXR beta-LBD on SPA beads; read-out: LXRbeta Binding IC50
T2 construct: human LXR beta (aa 155 to 460); unspecified tag ('tagged versions'); made in house; host or cells: E. coli BL21 (pLysS)
T2 sequence (P55055 155-460): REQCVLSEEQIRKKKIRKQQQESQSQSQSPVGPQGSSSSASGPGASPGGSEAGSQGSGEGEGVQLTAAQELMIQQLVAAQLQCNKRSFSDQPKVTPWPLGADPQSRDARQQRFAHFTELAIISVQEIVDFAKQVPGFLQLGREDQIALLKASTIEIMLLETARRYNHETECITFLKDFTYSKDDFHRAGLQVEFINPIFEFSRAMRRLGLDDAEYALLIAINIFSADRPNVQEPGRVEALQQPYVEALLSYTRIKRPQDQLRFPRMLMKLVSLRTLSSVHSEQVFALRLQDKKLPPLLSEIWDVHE
Description: as §1, §2, §3, §4, §5

Compound	IC50 (human LXR alpha) [µM]	IC50 (human LXR beta) [µM]
Cc1cccc(-c2cccc([C@@H]3CN(C(=O)OC(C)(C)C)CC[C@H]3c3ccccc3)c2)c1 (relative stereo) [Example 44, trans-3-(3′-Methyl-biphenyl-3-yl)-4-phenyl-piperidine-1-carboxylic acid tert-butyl ester]	53.7	5.51
COc1ccc(F)cc1-c1cccc(C2CN(S(=O)(=O)c3ccccc3)C(=O)N2C(C)C)c1 (stereo not shown) [Example 27, 1-Benzenesulfonyl-4-(5′-fluoro-2′-methoxy-biphenyl-3-yl)-3-isopropyl-imidazolidin-2-one]	6.23	3.8
